In publication PMC11203437, “Subtle Structural Differences Affect the Inhibitory Potency of RGD-Containing Cyclic Peptide Inhibitors Targeting SPSB Proteins” (International Journal of Molecular Sciences, 2024):
Peptide text beside a SMILES is read from it.

T1: SPSB2 (His6-tagged SPRY domain of human SPSB2, residues 22-220) (Homo sapiens, UniProt Q99619)
T1 construct: His6; made in house
T1 sequence (Q99619 22-220): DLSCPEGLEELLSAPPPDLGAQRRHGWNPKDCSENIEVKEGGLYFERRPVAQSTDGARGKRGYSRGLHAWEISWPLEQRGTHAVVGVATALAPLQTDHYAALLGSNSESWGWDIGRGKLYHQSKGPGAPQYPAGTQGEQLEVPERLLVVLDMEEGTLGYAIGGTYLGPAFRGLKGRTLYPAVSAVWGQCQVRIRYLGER

T2: GST-tagged SPRY domain of human SPSB4 (residues 28-232) (human, UniProt Q96A44 28-232)
T2 construct: SPRY domain of human SPSB4, UniProtKB Q96A44, residues 28-232; Cloned into pGEX-4T-2; source: recombinant, induced with IPTG in LB medium, purified (glutathione sepharose 4B)
T2 sequence (looked up): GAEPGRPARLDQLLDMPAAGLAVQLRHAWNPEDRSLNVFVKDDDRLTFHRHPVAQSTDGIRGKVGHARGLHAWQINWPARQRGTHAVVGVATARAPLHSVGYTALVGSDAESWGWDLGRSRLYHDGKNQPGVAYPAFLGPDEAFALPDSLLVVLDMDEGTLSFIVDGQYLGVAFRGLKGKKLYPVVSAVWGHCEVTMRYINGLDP

T3: GST-tagged SPRY domain of human SPSB1 (residues 28-232) (human, UniProt Q96BD6 28-232)
T3 construct: SPRY domain of human SPSB1, UniProtKB Q96BD6, residues 28-232; Cloned into pGEX-4T-2; also called SPSP1; source: recombinant, induced with IPTG in LB medium, purified (glutathione sepharose 4B)
T3 sequence (looked up): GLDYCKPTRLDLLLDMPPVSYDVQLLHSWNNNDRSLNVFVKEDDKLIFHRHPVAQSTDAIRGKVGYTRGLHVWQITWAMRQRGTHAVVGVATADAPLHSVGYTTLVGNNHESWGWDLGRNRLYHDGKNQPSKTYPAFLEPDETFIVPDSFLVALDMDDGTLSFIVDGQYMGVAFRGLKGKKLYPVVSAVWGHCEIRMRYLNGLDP

T4: His6-tagged SPRY domain of human SPSB2 (residues 22-220) (human, UniProt Q99619 22-220)
T4 construct: SPRY domain of human SPSB2, UniProtKB Q99619, residues 22-220; also called SPRY domain-containing SOCS box protein 2; source: recombinant, purified (Ni-NTA; complexes with peptide by gel filtration on Superdex 75); preparation previously described [26]
T4 sequence (looked up): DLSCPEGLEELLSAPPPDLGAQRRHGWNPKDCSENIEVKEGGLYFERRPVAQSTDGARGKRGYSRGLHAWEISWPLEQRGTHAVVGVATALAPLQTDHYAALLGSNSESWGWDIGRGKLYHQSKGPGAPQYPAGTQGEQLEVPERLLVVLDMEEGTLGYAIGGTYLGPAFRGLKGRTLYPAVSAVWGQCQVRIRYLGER


Columns and labels:
[1] = target: T1, SPSB2 (His6-tagged SPRY domain of human SPSB2, residues 22-220); experiment: isothermal titration calorimetry (ITC), binding to SPSB2; settings: ITC Kd compared with cR8 Kd reported previously [19]
Experimental: (§1) The preparation of the recombinant His6-tagged SPRY domain of human SPSB2 (UniProtKB accession number Q99619, residues 22-220) has been previously described. Briefly, SPSB2 protein was initially purified using a Ni-NTA column and the amount of the protein was measured using the Bradford method. Either cR7 or cR9, at 1.5-fold molar excess, was then added to the protein and the SPSB2-cR7 and SPSB2-cR9 complexes were purified by gel filtration using a HiLoad 16/600 Superdex 75 column (GE Healthcare, Marlborough, MA, USA) equilibrated against a buffer containing 50 mM Tris-HCl pH 7.5, 150 mM NaCl, 5 mM DTT. To generate the GST-fusion proteins used in the cell lysate inhibition assay, the SPRY domains of human TRIM25 (UniProtKB Q14258, residues 433-630), SPSB2, SPSB1 (UniProtKB Q96BD6, residues 28-232), and SPSB4 (UniProtKB Q96A44, residues 28-232) were inserted into the pGEX-4T-2 vector (GE Healthcare, Marlborough, MA, USA). Protein expression was induced in an LB medium supplemented with 0.1 mM isopropyl β-D-1-thiogalactopyranoside (IPTG) at 18 °C overnight. […]
All ITC measurements were performed at 25 °C using iTC200 (Malvern Panalytical, Malvern, UK). […] The dissociation constant (Kd) was calculated, with the error from the Origin-calculated association constant (K) transferred as the same fraction of the primary value.

[2] = system: SPSB4-iNOS interaction (GST-tagged SPRY domain of SPSB4; full-length iNOS from RAW 264.7 lysate); experiment: cell lysate inhibition assay, SPSB4-iNOS interaction (GST pull-down, Western blot); format: biochemical, human (SPSB4); settings: for displacement of full-length iNOS from SPSB4: 10 μM peptide, LPS/IFN-γ-stimulated RAW 264.7 lysate, 2 h, GST pull-down, anti-iNOS Western blot
Experimental: (§2) Figure 6 Inhibition of SPSB-iNOS interactions by cR7, cR8, and cR9. Cell lysates from lipopolysaccharide/interferon-γ-stimulated RAW 264.7 cells were incubated with the GST-tagged SPRY domains of (A) SPSB2, (B) SPSB1, and (C) SPSB4 in the absence or presence of cR7, cR8, and cR9. GST-tagged SPRY domain of TRIM25 was used as a negative control. A 9-mer linear peptide (hK9) derived from the iNOS N-terminal region was included as a control. After interaction for 2 h, GST-fusion proteins were recovered via affinity purification using glutathione-sepharose 4B beads. Interaction with full-length iNOS was analyzed by Western blotting with anti-iNOS antibody (upper panels) and equivalent protein input was confirmed by reprobing the membranes with anti-GST antibody (lower panels).
as §1, with “overnight. Cells were harvested and resuspended in PBS, and then lysed using a cell disruptor (JNBIO, Guangzhou, China). Soluble GST-tagged proteins were purified using a glutathione sepharose 4B column prepared with PBS.” for “overnight.”

[3] = system: SPSB1-iNOS interaction (GST-tagged SPRY domain of SPSB1; full-length iNOS from RAW 264.7 lysate); experiment: cell lysate inhibition assay, SPSB1-iNOS interaction (GST pull-down, Western blot); format: biochemical, human (SPSB1); settings: for inhibition of SPSB1-iNOS interaction: 1 μM peptide, LPS/IFN-γ-stimulated RAW 264.7 lysate, 2 h, GST pull-down, anti-iNOS Western blot
Experimental: as §2
as §1, with “overnight. Cells were harvested and resuspended in PBS, and then lysed using a cell disruptor (JNBIO, Guangzhou, China). Soluble GST-tagged proteins were purified using a glutathione sepharose 4B column prepared with PBS.” for “overnight.”

[4] = system: SPSB2-iNOS interaction (GST-tagged SPRY domain of SPSB2; full-length iNOS from RAW 264.7 lysate); experiment: cell lysate inhibition assay, SPSB2-iNOS interaction (GST pull-down, Western blot); format: biochemical, human (SPSB2); settings: for displacement of full-length iNOS from SPSB2: 10 μM peptide, LPS/IFN-γ-stimulated RAW 264.7 lysate, 2 h, pH 7.5 lysis buffer, GST pull-down, anti-iNOS Western blot
Experimental: as §2
as §1, with “overnight. Cells were harvested and resuspended in PBS, and then lysed using a cell disruptor (JNBIO, Guangzhou, China). Soluble GST-tagged proteins were purified using a glutathione sepharose 4B column prepared with PBS.” for “overnight.”

[5] = target: T2, GST-tagged SPRY domain of human SPSB4 …; experiment: pull-down; competition: 1 μM or 10 μM cyclic peptide added to the RAW 264.7 lysate with 2 μg/mL GST-tagged SPRY domain for 2 h; iNOS recovered on glutathione sepharose 4B read by Western blot; settings: both partners purified
[6] = target: T3, GST-tagged SPRY domain of human SPSB1 …; experiment: as above; settings: both partners purified
[7] = target: T4, His6-tagged SPRY domain of human SPSB2 …; experiment: ITC; 100 μM cR7 or cR9 titrated into 10 μM SPSB2; 25 °C; 50 mM Tris-HCl pH 7.5, 150 mM NaCl, 5 mM DTT; single binding site model; settings: both partners purified
[8] = overall comparison of cR7, cR8 and cR9, 1 or 10 μM, Western blot

| Molecule | SPSB2-binding affinity, fold higher than cR8 [1] | displacement of full-length iNOS from SPSB4 [2] | overall inhibition of SPSB4-iNOS interaction, relative [2, 8] | inhibition of SPSB1-iNOS interaction [3] | overall inhibition of SPSB1-iNOS interaction, relative [3, 8] | displacement of full-length iNOS from SPSB2 [4] | overall inhibition of SPSB2-iNOS interaction, relative [4, 8] | binding result [5] | binding result [6] | Kd [7] | stoichiometry N [7] |
| --- | --- | --- | --- | --- | --- | --- | --- | --- | --- | --- | --- |
| CC[C@H](C)[C@@H]1NC(=O)[C@H](CC(=O)O)NC(=O)CNC(=O)[C@H](CCCNC(=N)N)NC(=O)[C@H](CC(N)=O)NC(=O)[C@H](CC(N)=O)NC(=O)[C@H](CC(N)=O)NC1=O [cR7, cyclo(RGDINNN)] (cyclo(RGDINNN)) | ~ 6.5 fold | able to displace full-length iNOS binding to SPSB4 | stronger inhibition | can effectively inhibit SPSB1-iNOS interaction | stronger inhibition | able to displace full-length iNOS binding to SPSB2 | stronger inhibition | – | – | – | – |
| CC[C@H](C)[C@@H]1NC(=O)[C@H](CC(=O)O)NC(=O)CNC(=O)[C@H](CCCNC(=N)N)NC(=O)[C@H](CCC(=O)O)NC(=O)[C@H](C(C)C)NC(=O)[C@H](CC(N)=O)NC(=O)[C@H](CC(N)=O)NC(=O)[C@H](CC(N)=O)NC1=O [cR9, cyclo(RGDINNNVE)] (cyclo(RGDINNNVE)) | ~ 2 fold | able to displace full-length iNOS binding to SPSB4 | – | can effectively inhibit SPSB1-iNOS interaction | – | able to displace full-length iNOS binding to SPSB2 | – | – | – | – | – |
| RGDINNN (head-to-tail amide-cyclized, Cyclic: the last residue is amide-bonded to the first; source: synthetic peptide (GL Biochem Ltd.)) [cR7, cyclo(RGDINNN)] | – | – | – | – | – | – | – | binds | binds | 103 nM | 1 |
| RGDINNNVE (head-to-tail amide-cyclized, designed cyclic peptide: RGD motif joined to the iNOS-derived stretch DINNNVE; Cyclic: the last residue is amide-bonded to the first; source: synthetic peptide (GL Biochem Ltd.)) [cR9, cyclo(RGDINNNVE)] | – | – | – | – | – | – | – | binds | binds | 308 nM | – |
